Test results from PMC3534865 (Bioorganic & medicinal chemistry letters, 2012).
“Also recorded” adds a separate entry of the source.

Columns and labels:
human M1 (hM1) [1] = molecular target: T1, human M1 (hM1) (Homo sapiens, UniProt P11229); test: hM1 PAM functional; type: cell-based; conditions: for efficacy (% AChmax) compared with ML137: at the highest concentration tested of 30 μM; for hM1 PAM activity: tested up to 30 μM; for pEC50: Table 2, hM1, mean ± SEM
T1 sequence (P11229 1-460): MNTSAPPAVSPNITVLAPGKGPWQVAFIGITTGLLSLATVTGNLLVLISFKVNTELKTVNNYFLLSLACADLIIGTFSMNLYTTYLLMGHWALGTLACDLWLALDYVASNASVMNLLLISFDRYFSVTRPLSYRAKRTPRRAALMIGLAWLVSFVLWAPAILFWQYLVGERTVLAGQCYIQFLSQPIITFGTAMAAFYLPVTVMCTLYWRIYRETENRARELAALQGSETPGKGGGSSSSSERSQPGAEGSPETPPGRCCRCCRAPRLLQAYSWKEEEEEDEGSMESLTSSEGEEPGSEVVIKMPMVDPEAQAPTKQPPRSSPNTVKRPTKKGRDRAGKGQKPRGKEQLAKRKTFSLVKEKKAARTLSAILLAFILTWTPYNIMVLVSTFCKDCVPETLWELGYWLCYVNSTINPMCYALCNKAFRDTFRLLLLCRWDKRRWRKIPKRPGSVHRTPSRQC

hM1 = molecular target: T2, hM1 (Homo sapiens, UniProt P11229); test: ACh fold-shift experiment; type: cell-based; conditions: ML137 to 14
T2 sequence (P11229 1-460): T1 sequence (P11229 1-460)

[2] = system: human muscarinic receptor subtypes; type: cell-based; conditions: hM1 over the other muscarinic receptor subtypes; Figure 4
[3] = Chemical stability observation; type: physicochemical; conditions: presumed air oxidation or self-condensation
human M1 (hM1) [4] = molecular target: T1, human M1 (hM1); conditions: cited from earlier work

Structure (SMILES) | hM1 PAM activity (human M1 (hM1) [1]) | further results
Cn1cc(-c2ccc(CN3c4ccccc4CS3(=O)=O)c(F)c2)cn1 [Compound 13] |  | efficacy (% AChmax) compared with ML137 (human M1 (hM1) [1]): comparable efficacy
Cn1cc(-c2ccc(CN3C(=O)Cc4ccccc43)c(F)c2)cn1 [Compound 14] |  | improvement in ACh fold-shift relative to ML137 (hM1): 10 fold; muscarinic receptor subtype selectivity [2]: little-to-no erosion of muscarinic subtype selectivity; also recorded: very selective for the hM1 receptor; decrease in hM1 PAM EC50 (potency) relative to ML137 (human M1 (hM1) [1]; ML137 to 14): 4 fold; efficacy (% AChmax) compared with ML137 (human M1 (hM1) [1]): comparable efficacy
Cn1cc(-c2ccc(Cn3c(=O)[nH]c4ccccc43)c(F)c2)cn1 [Compound 15] | not tolerated | 
Cn1cc(-c2ccc(CN3CCc4ccccc43)c(F)c2)cn1 [Compound 16] | not tolerated | 
CC(=O)N(Cc1ccc(-c2cnn(C)c2)cc1F)c1ccccc1 [Compound 17] | inactive | 
Cn1cc(-c2ccc(CN3C(=O)c4cccc5cccc3c45)c(F)c2)cn1 [Compound 18] | detrimental to activity | 
Cn1cc(-c2ccc(CN3C(=O)C(N)c4ccccc43)c(F)c2)cn1 (stereo not shown) [Compound 23b] |  | chemical stability [3]: undesirable level of chemical instability; increase in hM1 potency over 14 (human M1 (hM1) [1]; ratio of EC50 vs 14): 2 fold
Cn1cc(-c2ccc(CN3C(=O)C(C)(N)c4ccccc43)c(F)c2)cn1 (stereo not shown) [Compound 23c] | weakly active | 
CN(C)C1(C)C(=O)N(Cc2ccc(-c3cnn(C)c3)cc2)c2ccccc21 (stereo not shown) [Compound 23d] | weakly active | 
Cn1cc(-c2ccc(CN3C(=O)C(C)(O)c4ccccc43)c(F)c2)cn1 (stereo not shown) [Compound 23e] |  | chemical stability [3]: stable
CCCn1cc(-c2ccc(CN3C(=O)C(O)(C(F)(F)F)c4ccccc43)c(F)c2)cn1 (stereo not shown) [Compound 23k] | complete loss of activity | 
CC(C)n1cc(-c2ccc(CN3C(=O)C(O)(C(F)(F)F)c4ccccc43)c(F)c2)cn1 (stereo not shown) [Compound 23l] | complete loss of activity | 
O=C1N(Cc2ccc(-c3cn[nH]c3)cc2F)c2ccccc2C1(O)C(F)(F)F (stereo not shown) [Compound 23m] | complete loss of activity | 
Cn1cc(-c2ccc(Cn3ccccc3=O)c(F)c2)cn1 [Compound 24d] | loss of all PAM activity | 
Cn1cc(-c2ccc(CN3C(=O)COc4ccccc43)c(F)c2)cn1 [Compound 24e] |  | pEC50 (human M1 (hM1) [1]): 5.29 ± 0.09
Cn1cc(-c2ccc(CN3C(=O)CSc4ccccc43)c(F)c2)cn1 [Compound 24h] |  | pEC50 (human M1 (hM1) [1]): 5.49 ± 0.12
Cn1cc(-c2ccc(CN3CCSc4ccccc43)c(F)c2)cn1 [Compound 24k] | no activity at all | 
Cn1cc(-c2ccc(CN3C(=O)C(=O)c4ccccc43)c(F)c2)cn1 [ML137] |  | %AChmax previously reported (human M1 (hM1) [4]): 65%
